#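 Cells were grown in 96-well plates and exposed to each compound for 48 hours at five concentrations; endpoints were interpolated linearly between bracketing concentrations, or set to the highest concentration if not reached. At the GI50, growth is halved. TGI: total growth inhibition.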
# Experiments:
# Assay in all cases: NCI-60 cell line screen, 48 h
# UACC-62 melanoma = system: UACC-62 melanoma
# SR leukemia = system: SR leukemia
# HS 578T breast = system: HS 578T breast
# EKVX NSCLC = system: EKVX NSCLC
# OVCAR-4 ovarian = system: OVCAR-4 ovarian
# NCI-H522 lung = system: NCI-H522 lung
# CCRF-CEM leukemia = system: CCRF-CEM leukemia
# HCC-2998 colon = system: HCC-2998 colon
# T-47D breast = system: T-47D breast
# KM12 colon = system: KM12 colon
# OVCAR-5 ovarian = system: OVCAR-5 ovarian
# ACHN renal = system: ACHN renal
# SK-OV-3 ovarian = system: SK-OV-3 ovarian
# K-562 leukemia = system: K-562 leukemia
# SK-MEL-28 melanoma = system: SK-MEL-28 melanoma
# HCT-15 colon = system: HCT-15 colon
# UACC-257 melanoma = system: UACC-257 melanoma
# HOP-92 NSCLC = system: HOP-92 NSCLC
# LOX IMVI melanoma = system: LOX IMVI melanoma
# SNB-19 CNS = system: SNB-19 CNS
# HCT-116 colon = system: HCT-116 colon
# BT-549 breast = system: BT-549 breast
# UO-31 renal = system: UO-31 renal
# 786-0 renal = system: 786-0 renal
# A549 NSCLC = system: A549 NSCLC
# HOP-62 NSCLC = system: HOP-62 NSCLC
# SNB-75 CNS = system: SNB-75 CNS
# PC-3 prostate = system: PC-3 prostate
# OVCAR-3 ovarian = system: OVCAR-3 ovarian
# M14 melanoma = system: M14 melanoma
# SK-MEL-2 melanoma = system: SK-MEL-2 melanoma
# HL-60(TB) leukemia = system: HL-60(TB) leukemia
# MCF7 breast = system: MCF7 breast
# SN12C renal = system: SN12C renal
# NCI-H226 lung = system: NCI-H226 lung
# TK-10 renal = system: TK-10 renal
# IGROV1 ovarian = system: IGROV1 ovarian
# NCI/ADR-RES ovarian = system: NCI/ADR-RES ovarian
# MDA-MB-231 breast = system: MDA-MB-231 breast
# SF-295 CNS = system: SF-295 CNS
# SK-MEL-5 melanoma = system: SK-MEL-5 melanoma
# MDA-MB-435 = system: MDA-MB-435
# CAKI-1 renal = system: CAKI-1 renal
# SF-268 CNS = system: SF-268 CNS
# OVCAR-8 ovarian = system: OVCAR-8 ovarian
# NCI-H23 lung = system: NCI-H23 lung
# NCI-H460 lung = system: NCI-H460 lung
# U251 CNS = system: U251 CNS
# SW-620 colon = system: SW-620 colon
# MOLT-4 leukemia = system: MOLT-4 leukemia
# COLO 205 colon = system: COLO 205 colon
# HT29 colon = system: HT29 colon
# RPMI-8226 leukemia = system: RPMI-8226 leukemia
# DU-145 prostate = system: DU-145 prostate
# SF-539 CNS = system: SF-539 CNS
# MALME-3M melanoma = system: MALME-3M melanoma
# RXF 393 renal = system: RXF 393 renal
smiles,measurement,setting,value
CC(C)=CCc1c2c(c(O)c3c1O[C@]14C(=C[C@@H]5C[C@H]1C(C)(C)O[C@@]4(C/C=C(/C)C(=O)O)C5=O)C3=O)CC(O)C(C)(C)O2 (some centres undefined),GI50,UACC-62 melanoma,15.5 µM
same,TGI,UACC-62 melanoma,34.8 µM
same,GI50,SR leukemia,7.8 µM
same,TGI,SR leukemia,> 100 µM
same,GI50,HS 578T breast,14.1 µM
same,TGI,HS 578T breast,86 µM
same,GI50,EKVX NSCLC,21.6 µM
same,TGI,EKVX NSCLC,69.8 µM
same,GI50,OVCAR-4 ovarian,24.4 µM
same,TGI,OVCAR-4 ovarian,86.8 µM
same,GI50,NCI-H522 lung,14.9 µM
same,TGI,NCI-H522 lung,28.4 µM
same,GI50,CCRF-CEM leukemia,5.76 µM
same,TGI,CCRF-CEM leukemia,40.9 µM
same,GI50,HCC-2998 colon,17.7 µM
same,TGI,HCC-2998 colon,32.9 µM
same,GI50,T-47D breast,19 µM
same,TGI,T-47D breast,58.8 µM
same,GI50,KM12 colon,18.6 µM
same,TGI,KM12 colon,39.6 µM
same,GI50,OVCAR-5 ovarian,28.6 µM
same,TGI,OVCAR-5 ovarian,74 µM
same,GI50,ACHN renal,27.7 µM
same,TGI,ACHN renal,85.7 µM
same,GI50,SK-OV-3 ovarian,40.6 µM
same,TGI,SK-OV-3 ovarian,> 100 µM
same,GI50,K-562 leukemia,11.6 µM
same,TGI,K-562 leukemia,> 100 µM
same,GI50,SK-MEL-28 melanoma,19.7 µM
same,TGI,SK-MEL-28 melanoma,47.6 µM
same,GI50,HCT-15 colon,22.6 µM
same,TGI,HCT-15 colon,> 100 µM
same,GI50,UACC-257 melanoma,19.4 µM
same,TGI,UACC-257 melanoma,43.8 µM
same,GI50,HOP-92 NSCLC,22.1 µM
same,TGI,HOP-92 NSCLC,48.9 µM
same,GI50,LOX IMVI melanoma,11.2 µM
same,TGI,LOX IMVI melanoma,25.2 µM
same,GI50,SNB-19 CNS,17.7 µM
same,TGI,SNB-19 CNS,40.4 µM
same,GI50,HCT-116 colon,13.2 µM
same,TGI,HCT-116 colon,26.7 µM
same,GI50,BT-549 breast,12.4 µM
same,TGI,BT-549 breast,26.4 µM
same,GI50,UO-31 renal,14.8 µM
same,TGI,UO-31 renal,32.7 µM
same,GI50,786-0 renal,19.7 µM
same,TGI,786-0 renal,38 µM
same,GI50,A549 NSCLC,31 µM
same,TGI,A549 NSCLC,78.1 µM
same,GI50,HOP-62 NSCLC,20.6 µM
same,TGI,HOP-62 NSCLC,42.5 µM
same,GI50,SNB-75 CNS,21.3 µM
same,TGI,SNB-75 CNS,64.1 µM
same,GI50,PC-3 prostate,19.8 µM
same,TGI,PC-3 prostate,49.1 µM
same,GI50,OVCAR-3 ovarian,14.5 µM
same,TGI,OVCAR-3 ovarian,28 µM
same,GI50,M14 melanoma,14.7 µM
same,TGI,M14 melanoma,34.7 µM
same,GI50,SK-MEL-2 melanoma,16.6 µM
same,TGI,SK-MEL-2 melanoma,34.7 µM
same,GI50,HL-60(TB) leukemia,27.9 µM
same,TGI,HL-60(TB) leukemia,68 µM
same,GI50,MCF7 breast,9.1 µM
same,TGI,MCF7 breast,52.4 µM
same,GI50,SN12C renal,18.9 µM
same,TGI,SN12C renal,51 µM
same,GI50,NCI-H226 lung,23.8 µM
same,TGI,NCI-H226 lung,72.7 µM
same,GI50,TK-10 renal,23.8 µM
same,TGI,TK-10 renal,41.1 µM
same,GI50,IGROV1 ovarian,20.3 µM
same,TGI,IGROV1 ovarian,64.1 µM
same,GI50,NCI/ADR-RES ovarian,30.9 µM
same,TGI,NCI/ADR-RES ovarian,> 100 µM
same,GI50,MDA-MB-231 breast,26.5 µM
same,TGI,MDA-MB-231 breast,92.2 µM
same,GI50,SF-295 CNS,27.9 µM
same,TGI,SF-295 CNS,87 µM
same,GI50,SK-MEL-5 melanoma,15 µM
same,TGI,SK-MEL-5 melanoma,30.3 µM
same,GI50,MDA-MB-435,18.9 µM
same,TGI,MDA-MB-435,51.8 µM
same,GI50,CAKI-1 renal,19.9 µM
same,TGI,CAKI-1 renal,57 µM
same,GI50,SF-268 CNS,14.7 µM
same,TGI,SF-268 CNS,34.5 µM
same,GI50,OVCAR-8 ovarian,18 µM
same,TGI,OVCAR-8 ovarian,45.1 µM
same,GI50,NCI-H23 lung,17.7 µM
same,TGI,NCI-H23 lung,48.4 µM
same,GI50,NCI-H460 lung,16.7 µM
same,TGI,NCI-H460 lung,39.6 µM
same,GI50,U251 CNS,15 µM
same,TGI,U251 CNS,30.1 µM
same,GI50,SW-620 colon,13.2 µM
same,TGI,SW-620 colon,33.2 µM
same,GI50,MOLT-4 leukemia,17.3 µM
same,TGI,MOLT-4 leukemia,65.1 µM
same,GI50,COLO 205 colon,20.2 µM
same,TGI,COLO 205 colon,43.4 µM
same,GI50,HT29 colon,22 µM
same,TGI,HT29 colon,62.4 µM
same,GI50,RPMI-8226 leukemia,10.1 µM
same,TGI,RPMI-8226 leukemia,53.6 µM
same,GI50,DU-145 prostate,20.8 µM
same,TGI,DU-145 prostate,48.1 µM
same,GI50,SF-539 CNS,20.7 µM
same,TGI,SF-539 CNS,46.5 µM
same,GI50,MALME-3M melanoma,21.9 µM
same,TGI,MALME-3M melanoma,52.5 µM
same,GI50,RXF 393 renal,19 µM
same,TGI,RXF 393 renal,38.2 µM

# From PubChem BioAssay (NCI)
